Like-named read-outs stand apart in the source and are kept apart here.
Legend:
[1] = molecular target: T1, ALK (Homo sapiens, UniProt Q9UM73); experiment: Kinase inhibitory activity (33P-ATP filter binding, Reaction Biology Corp.); type: biochemical; conditions: read-out: The half maximal inhibitory concentration IC50 on the kinases, ALK
T1 construct: purchased Reaction Biology Corp. (contract assay)
Method in brief: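 Compounds (10 concentrations, 3-fold dilutions, 2% DMSO final) preincubated 20 min at room temperature with kinase and substrate in Hepes pH 7.5 buffer. Reaction started with ^33P-ATP, 120 min at room temperature; filter-binding radioactivity expressed as activity remaining versus DMSO control, IC50 from fitted dose-response curve.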

[2] = molecular target: T2, Ba/F3 LMNA-NTRK1-WT stably transfected cell line (Homo sapiens, UniProt P04629); experiment: Cell proliferation inhibition (CellTiter-Glo); type: cell-based; conditions: 72 hours, read-out: The half maximal inhibitory concentration IC50 against cells, Ba/F3 LMNA-NTRK1-WT
T2 construct: fused on or other part: P02545 (Prelamin-A/C)
T2 sequence (P04629 whole entry, stated change not applied, the tested form may be a part): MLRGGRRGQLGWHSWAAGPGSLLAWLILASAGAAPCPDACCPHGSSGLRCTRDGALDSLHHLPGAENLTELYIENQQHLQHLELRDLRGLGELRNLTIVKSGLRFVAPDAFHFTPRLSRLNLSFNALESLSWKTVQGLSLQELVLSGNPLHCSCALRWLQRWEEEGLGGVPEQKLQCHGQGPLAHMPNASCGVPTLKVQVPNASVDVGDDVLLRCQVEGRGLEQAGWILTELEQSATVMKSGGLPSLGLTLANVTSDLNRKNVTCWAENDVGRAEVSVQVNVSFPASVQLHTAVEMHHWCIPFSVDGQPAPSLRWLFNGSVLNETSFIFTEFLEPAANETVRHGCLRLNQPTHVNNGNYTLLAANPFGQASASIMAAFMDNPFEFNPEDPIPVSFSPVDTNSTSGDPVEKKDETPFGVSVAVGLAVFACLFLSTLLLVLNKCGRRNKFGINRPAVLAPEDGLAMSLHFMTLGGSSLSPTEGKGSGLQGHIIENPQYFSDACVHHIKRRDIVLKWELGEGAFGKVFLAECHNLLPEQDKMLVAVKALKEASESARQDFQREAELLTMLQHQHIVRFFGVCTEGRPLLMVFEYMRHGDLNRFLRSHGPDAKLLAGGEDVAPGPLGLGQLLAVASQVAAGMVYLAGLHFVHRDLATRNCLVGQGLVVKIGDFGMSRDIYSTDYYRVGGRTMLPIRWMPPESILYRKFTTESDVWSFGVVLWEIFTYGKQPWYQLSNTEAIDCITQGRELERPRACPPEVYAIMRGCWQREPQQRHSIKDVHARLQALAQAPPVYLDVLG
Method in brief: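 Stably transfected Ba/F3 cells (≥90% viable) were seeded overnight, then exposed in triplicate to a 9-point, 3-fold series (highest 10 μM, prepared as 10× solutions) for 72 h at 37 °C, 5% CO2. Viability was read by ATP luminescence, and IC50 came from a nonlinear sigmoidal fit.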

[3] = In vivo pharmacokinetic test in mice; design: species or system male CD-1 mice; conditions: for Cmax: read-out: Peak concentration Cmax; for AUC(0-t): read-out: Area under the curve AUC0-last
Method in brief: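 Male CD-1 mice, 7-9 weeks, given a single IV (3 mg/kg) or intragastric dose in 5% DMSO/10% solutol/85% water. Plasma drug levels measured by LC/MS/MS at multiple time points to derive PK parameters.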

[4] = molecular target: T3, TrkC (Homo sapiens, UniProt Q16288); experiment: Kinase inhibitory activity (33P-ATP filter binding, Reaction Biology Corp.); type: biochemical; conditions: read-out: The half maximal inhibitory concentration IC50 on the kinases, TrkC
T3 construct: purchased Reaction Biology Corp. (contract assay)
T3 sequence (Q16288 32-839): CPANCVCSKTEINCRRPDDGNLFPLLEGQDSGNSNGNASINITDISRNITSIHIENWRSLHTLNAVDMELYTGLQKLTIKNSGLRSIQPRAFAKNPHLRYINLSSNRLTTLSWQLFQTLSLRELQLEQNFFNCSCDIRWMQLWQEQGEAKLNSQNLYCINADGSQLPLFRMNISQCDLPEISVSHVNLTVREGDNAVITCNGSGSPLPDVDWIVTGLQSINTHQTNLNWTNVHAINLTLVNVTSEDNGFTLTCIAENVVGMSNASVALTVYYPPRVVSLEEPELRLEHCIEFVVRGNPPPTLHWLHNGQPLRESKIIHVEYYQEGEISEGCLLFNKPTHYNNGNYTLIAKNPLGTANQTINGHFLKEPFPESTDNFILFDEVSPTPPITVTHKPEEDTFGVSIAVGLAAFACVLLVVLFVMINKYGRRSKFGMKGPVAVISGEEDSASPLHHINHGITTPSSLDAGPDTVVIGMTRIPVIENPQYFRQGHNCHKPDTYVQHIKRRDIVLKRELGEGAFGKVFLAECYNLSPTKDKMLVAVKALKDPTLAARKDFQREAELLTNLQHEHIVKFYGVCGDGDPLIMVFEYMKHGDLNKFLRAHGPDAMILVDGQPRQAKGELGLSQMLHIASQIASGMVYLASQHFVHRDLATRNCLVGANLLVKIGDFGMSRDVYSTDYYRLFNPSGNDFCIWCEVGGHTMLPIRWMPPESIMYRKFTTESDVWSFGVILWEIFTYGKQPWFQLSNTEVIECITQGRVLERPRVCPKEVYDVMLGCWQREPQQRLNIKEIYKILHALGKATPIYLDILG
Method in brief: (§1)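 Radioactivity was read by filter binding. Activity was expressed as remaining activity relative to DMSO control, and IC50 came from dose-effect curve fitting.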

[5] = molecular target: T4, Ros-G2032R (Homo sapiens, UniProt P08922, G2032R); experiment: as above; type: biochemical; conditions: read-out: The half maximal inhibitory concentration IC50 on the kinases, Ros-G2032R
T4 construct: purchased Reaction Biology Corp. (contract assay)
Method in brief: as §1

[6] = molecular target: T5, TrkA-G595R (Homo sapiens, UniProt P04629, G595R); experiment: as above; type: biochemical; conditions: read-out: The half maximal inhibitory concentration IC50 on the kinases, TrkA-G595R
T5 construct: purchased Reaction Biology Corp. (contract assay)
T5 sequence (P04629 33-796 G595R): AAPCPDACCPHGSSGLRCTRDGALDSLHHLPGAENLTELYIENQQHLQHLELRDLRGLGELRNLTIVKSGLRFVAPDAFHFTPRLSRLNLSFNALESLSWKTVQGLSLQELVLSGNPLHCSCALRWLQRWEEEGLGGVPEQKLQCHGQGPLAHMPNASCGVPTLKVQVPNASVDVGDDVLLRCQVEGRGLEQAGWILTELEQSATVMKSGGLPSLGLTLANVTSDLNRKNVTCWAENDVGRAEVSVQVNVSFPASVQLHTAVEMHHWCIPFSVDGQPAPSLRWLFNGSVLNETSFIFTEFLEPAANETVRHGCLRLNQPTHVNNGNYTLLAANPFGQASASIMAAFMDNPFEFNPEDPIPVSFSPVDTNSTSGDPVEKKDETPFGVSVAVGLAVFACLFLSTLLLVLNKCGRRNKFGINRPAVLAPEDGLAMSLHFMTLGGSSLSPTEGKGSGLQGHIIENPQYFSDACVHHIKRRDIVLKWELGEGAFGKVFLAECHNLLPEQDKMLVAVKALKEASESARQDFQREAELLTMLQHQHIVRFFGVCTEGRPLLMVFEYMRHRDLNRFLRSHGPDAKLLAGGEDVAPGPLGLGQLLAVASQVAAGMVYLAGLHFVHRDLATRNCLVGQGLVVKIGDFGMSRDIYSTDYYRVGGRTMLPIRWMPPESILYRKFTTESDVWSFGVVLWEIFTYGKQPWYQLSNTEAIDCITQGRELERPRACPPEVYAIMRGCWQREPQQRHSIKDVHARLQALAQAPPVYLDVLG
Method in brief: as §1

[7] = molecular target: T6, Ros1 (Homo sapiens, UniProt P08922); experiment: as above; type: biochemical; conditions: read-out: The half maximal inhibitory concentration IC50 on the kinases, Ros1
T6 construct: purchased Reaction Biology Corp. (contract assay)
Method in brief: as §1

[8] = molecular target: T7, TrkA-G667C (Homo sapiens, UniProt P04629, G667C); experiment: as above; type: biochemical; conditions: read-out: The half maximal inhibitory concentration IC50 on the kinases, TrkA-G667C
T7 construct: purchased Reaction Biology Corp. (contract assay)
T7 sequence (P04629 33-796 G667C): as the sequence (P04629 33-796 G595R) above, with R563G, G635C counted along it
Method in brief: as §1

[9] = molecular target: T8, TrkA (Homo sapiens, UniProt P04629); experiment: as above; type: biochemical; conditions: read-out: The half maximal inhibitory concentration IC50 on the kinases, TrkA
T8 construct: purchased Reaction Biology Corp. (contract assay)
T8 sequence (P04629 33-796): as the sequence (P04629 33-796 G595R) above, with R563G counted along it
Method in brief: as §1

[10] = molecular target: T9, Ba/F3 LMNA-NTRK1-G595R stably transfected cell line (Homo sapiens, UniProt P04629, G595R, cells depend on it); experiment: Cell proliferation inhibition (CellTiter-Glo); type: cell-based; conditions: 72 hours, read-out: The half maximal inhibitory concentration IC50 against cells, Ba/F3 LMNA-NTRK1-G595R
T9 construct: fused on or other part: P02545 (Prelamin-A/C)
T9 sequence (P04629 whole entry G595R, the tested form may be a part): as the sequence (P04629 whole entry, stated change not applied, the tested form may be a part) above, with G595R counted along it

[11] = male, CD-1, mouse, plasma, PO dose of 10 mL/kg

T1 sequence (Q9UM73 19-1620): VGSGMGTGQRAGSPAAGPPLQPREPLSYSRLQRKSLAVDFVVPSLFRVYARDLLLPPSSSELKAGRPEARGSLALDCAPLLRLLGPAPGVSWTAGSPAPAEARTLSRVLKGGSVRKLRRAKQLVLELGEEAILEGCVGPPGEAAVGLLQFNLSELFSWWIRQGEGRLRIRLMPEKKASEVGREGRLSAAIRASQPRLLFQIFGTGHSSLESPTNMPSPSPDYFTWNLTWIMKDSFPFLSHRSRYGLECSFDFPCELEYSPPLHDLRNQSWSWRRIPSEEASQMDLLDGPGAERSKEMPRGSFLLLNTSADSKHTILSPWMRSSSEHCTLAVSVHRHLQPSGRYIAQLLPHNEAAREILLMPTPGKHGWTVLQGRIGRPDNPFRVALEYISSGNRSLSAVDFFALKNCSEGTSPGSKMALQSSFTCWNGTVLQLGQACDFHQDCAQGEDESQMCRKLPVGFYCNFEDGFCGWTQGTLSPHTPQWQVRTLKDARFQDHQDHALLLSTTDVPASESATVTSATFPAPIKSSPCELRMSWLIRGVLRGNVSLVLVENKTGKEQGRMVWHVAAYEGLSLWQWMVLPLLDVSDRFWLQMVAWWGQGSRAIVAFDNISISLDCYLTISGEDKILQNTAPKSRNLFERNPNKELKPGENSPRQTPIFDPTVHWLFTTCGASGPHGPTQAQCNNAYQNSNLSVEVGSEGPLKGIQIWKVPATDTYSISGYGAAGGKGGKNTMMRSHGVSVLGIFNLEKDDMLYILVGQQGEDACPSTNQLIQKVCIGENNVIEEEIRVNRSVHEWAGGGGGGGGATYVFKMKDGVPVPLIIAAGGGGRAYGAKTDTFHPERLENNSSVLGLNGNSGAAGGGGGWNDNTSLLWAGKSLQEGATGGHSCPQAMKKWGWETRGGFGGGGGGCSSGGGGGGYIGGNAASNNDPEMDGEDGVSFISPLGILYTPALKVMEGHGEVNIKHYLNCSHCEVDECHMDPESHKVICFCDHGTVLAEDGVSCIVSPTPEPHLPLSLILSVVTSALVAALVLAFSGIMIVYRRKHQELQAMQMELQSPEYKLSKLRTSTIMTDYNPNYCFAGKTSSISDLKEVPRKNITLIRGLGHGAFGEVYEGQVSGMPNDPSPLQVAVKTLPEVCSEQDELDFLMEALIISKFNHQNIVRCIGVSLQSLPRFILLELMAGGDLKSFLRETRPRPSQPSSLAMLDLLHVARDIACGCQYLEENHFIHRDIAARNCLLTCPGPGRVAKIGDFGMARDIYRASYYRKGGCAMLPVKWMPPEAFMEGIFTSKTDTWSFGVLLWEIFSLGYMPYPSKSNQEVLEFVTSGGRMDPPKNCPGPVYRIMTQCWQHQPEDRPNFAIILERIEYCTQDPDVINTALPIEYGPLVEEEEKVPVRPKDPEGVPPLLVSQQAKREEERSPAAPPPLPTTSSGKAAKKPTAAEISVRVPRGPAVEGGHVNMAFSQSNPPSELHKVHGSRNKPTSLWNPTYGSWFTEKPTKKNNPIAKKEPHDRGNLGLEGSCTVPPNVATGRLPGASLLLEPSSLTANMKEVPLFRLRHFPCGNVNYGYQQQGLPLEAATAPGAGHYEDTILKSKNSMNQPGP

IC50 [1] | GI50 [2] | Apparent clearance Cl ([3]; IV dose of 3 mg/kg) | IC50 [4] | IC50 [5] | IC50 [6] | IC50 [7] | IC50 [8] | IC50 [9] | GI50 [10] | Structure (SMILES) | other results
13 nM | 1.26 nM | 7.2 mL/min/kg | 0.14 nM | 0.4 nM | 3.6 nM | 0.14 nM | 7 nM | 2.07 nM | 6.2 nM | O=C1NC2(CC2)COc2ncc(F)cc2[C@H]2CCON2c2ccn3ncc1c3n2 [WX002A] | Apparent volume of distribution Vd ([3]; IV dose of 3 mg/kg): 0.49 L/kg; Area under the curve AUC0-last ([3]; IV dose of 3 mg/kg): 17.502 µM·h; Half life T1/2 ([3]; IV dose of 3 mg/kg): 45 min; Area under the curve AUC0-last ([3]; PO dose of 10 mL/kg): 29.787 µM·h; Time of peak concentration Tmax ([3]; PO dose of 10 mL/kg): 30 min; Bioavailability F % ([3]; PO dose of 10 mL/kg vs IV 3 mg/kg): 51%; Cmax ([3]; PO dose of 10 mL/kg): 9.14 µM
10.4 nM | 1.6 nM | 6.7 mL/min/kg | 0.05 nM | 0.52 nM | 2.31 nM | 0.16 nM | 6.49 nM | 1.61 nM | 3.92 nM | O=C1N[C@@H]2COC[C@@H]2Oc2ncc(F)cc2[C@H]2CCON2c2ccn3ncc1c3n2 [WX008A] | Vd ([3]; male, CD-1, mouse, plasma, IV dose of 3 mg/kg, read-out: Apparent volume of distribution Vd): 0.62 L/kg; AUC(0-t) ([3]; male, CD-1, mouse, plasma, IV dose of 3 mg/kg): 18.2 µM·h; half-life ([3]; male, CD-1, mouse, plasma, IV dose of 3 mg/kg, read-out: Half life T1/2 (converted)): 68.4 min; bioavailability ([3]; male, CD-1, mouse, plasma, PO dose of 10 mL/kg vs IV 3 mg/kg, read-out: Bioavailability F %): 65%; AUC(0-t) [3, 11]: 39.6 µM·h; Cmax [3, 11]: 12.2 µM; Tmax ([3]; male, CD-1, mouse, plasma, PO dose of 10 mL/kg, read-out: Time of peak concentration Tmax): 15 min

— patent publication US11464780B2, “Pyrazolopyrimidine derivative and use thereof” (Simcere Pharmaceutical Co. Ltd., priority 2018, dated 2022)
